Measured values as given in ChEMBL document CHEMBL1146586, “Chromone studies. Part 13. Synthesis and electron-impact mass spectrometric studies of 5-hydroxy-2-isopropyl-7-methoxychromone, a constituent of the medicinal plant Baeckea frutescens, and side-chain analogues” (J Nat Prod, 2003).
In brackets after ≈: the same amount, converted by molar mass.

Test: Toxicity against Artemia salina by Spearman-Karber method
Assay type: organism-based
Conditions: in vivo
With `CCc1cc(=O)c2c(O)cc(OC)cc2o1` the LC50 was 39 µg/mL (≈ 177 µM). `COc1cc(OC)c2c(=O)cc(Cc3ccccc3)oc2c1` gave an LC50 of 247 µg/mL (≈ 835 µM). Work on `COc1cc(O)c2c(=O)cc(C(C)C)oc2c1` yielded an LC50 of 23.8 µg/mL (≈ 102 µM). With `COc1cc(OC)c2c(=O)cc(C)oc2c1` the LC50 was 315 µg/mL (≈ 1430 µM). `COc1cc(O)c2c(=O)cc(Cc3ccccc3)oc2c1` gave an LC50 of 517 µg/mL (≈ 1830 µM). For `COc1cc(OC)c2c(=O)cc(C(C)C)oc2c1`, the LC50 was 94.2 µg/mL (≈ 379 µM). For `CCCc1cc(=O)c2c(OC)cc(OC)cc2o1`, the LC50 was 106 µg/mL (≈ 427 µM). `CCc1cc(=O)c2c(OC)cc(OC)cc2o1` showed an LC50 of 200 µg/mL (≈ 854 µM). In the case of `CCCc1cc(=O)c2c(O)cc(OC)cc2o1`, the LC50 is reported as 31.5 µg/mL (≈ 134 µM). `COc1cc(O)c2c(=O)cc(C)oc2c1` [EUGENIN] gave an LC50 of 112 µg/mL (≈ 544 µM).
